In US20250032490A1, “THERAPEUTIC REGIMENS FOR TREATMENT OF PAROXYSMAL NOCTURNAL HEMOGLOBINURIA” (Achillion Pharmaceuticals, Inc., priority 2017, published 2025):

Assays:
[1] = test system: C3 fragment deposition on artificial PNH cells; assay: C3 fragment deposition on artificial PNH cells (flow cytometry); assay type: cell-based; settings: 32% acidified C5-depleted normal human serum; read-out: IC50, inhibition of C3 fragment deposition on artificial PNH cells
Experimental: C5-depleted normal human serum (C5-Dpl NHS), gelatin veronal buffer (GVB) without Ca^++ and Mg^++ (GVB^0), 100 mM MgCl2+100 mM EGTA (MgEGTA) were obtained from Complement Technology Inc. (Tyler, TX). GVB^0·MgEGTA was prepared by mixing GVB^0 and 100 mM MgEGTA in a 9:1 ratio. FITC-conjugated anti-C3c antibody (cat #ab4212) and Alexa Fluor® 647-conjugated anti human CD59 antibody (cat #:ab187769) were purchased from Abcam (Cambridge, MA). […] Ferrone, and F. Mercuriali, The Action of Two Sulfhydryl Compounds on Normal Human Red Cells. Relationship to Red Cells of Paroxysmal Nocturnal Hemoglobinuria. Blood, 1965. 25: p. 502-10). After AET treatment, artificial PNH erythrocytes were centrifuged, supernatant was aspirated and cells were thoroughly washed with phosphate buffered saline (PBS) 3 times followed by washing with GVB^0 buffer ([…]) for additional 3 times. […] C3 fragment deposition on the surface of the erythrocytes was assessed by flow cytometry with BD Accuri C6 cytometer (BD Biosciences, San Jose, CA). […] IC50 values from each experiment were determined by curve-fitting of experimental data (the % C3 fragment-positive cells at increasing concentrations of inhibitor) to the four-parameter sigmoidal dose-response equation using non-linear regression analysis (Prism Software, GraphPad, La Jolla, CA).

PNH erythrocytes = assay: CAP-mediated hemolysis assay with PNH erythrocytes (subject A); assay type: cell-based, human; settings: for inhibition at 0.0234 µM: Compound 1 0.0234 μM; for inhibition at 0.0469 µM: Compound 1 0.0469 μM; for inhibition at 0.0938 µM: Compound 1 0.0938 μM; for inhibition at 0.1875 µM: Compound 1 0.1875 μM; for inhibition at 0.188 µM: Compound 1 0.188 μM; for inhibition at 0.375 µM: Compound 1 0.375 μM; for inhibition at 0.75 µM: Compound 1 0.75 μM; for inhibition at 1.5 µM: Compound 1 1.5 μM
Experimental: Complement-preserved normal human serum (NHS) from an individual donor of ABO blood group type AB (NHS-AB) was purchase from BioreclamationIVT (Westbury, NY). Gelatin veronal buffer (GVB), pH 7.3, without Ca^++ and Mg^++ (GVB^0) and 100 mM MgCl2 +100 mM EGTA (MgEGTA) were obtained from Complement Technology Inc. (Tyler, TX).
GVB^0·MgEGTA was prepared by mixing GVB^0 and 100 mM MgEGTA in a 9:1 ratio. PNH erythrocytes were used within five days of blood collection; before assay cells were collected by centrifugation at 800×g and 4° C. for 3 minutes and resuspended in fresh cold GVB^0·MgEGTA to a density of 5×10^8 cells/mL.
50 μL of NHS-AB was added to each well. The plates were mixed and incubated at room temperature for 5 minutes. 24 μL of this NHS-AB with compound was then transferred to duplicate wells of V-bottom microtiter plates each containing 76 μL GVB0·MgEGTA. 20 μL PNH erythrocytes was then added to each well and the plates were sealed, mixed, and incubated at 37° C. for 30 minutes with an added shaking for 15 minutes. […] Following incubation, PNH cells were removed by centrifugation at 800×g and 4° C. for 3 minutes, 100 μL supernatant per well was transferred to flat-bottom clear microtiter plates, and A405 of the supernatant was measured in a Molecular Devices Spectramax Plus plate reader.
Combinatorial interactions were analyzed via two methods.
Inhibition was analyzed by the method of Prichard and Shipman (Prichard, M. N. and C. Shipman, Jr. A Three-Dimensional Model to Analyze Drug-Drug Interactions. Antiviral Research 1990, 14:181-205) Three-dimensional surface graphs of each experiment were generated and analyzed using an Excel spreadsheet program adapted from the MacSynergy II spreadsheet (University of Alabama, Birmingham, AL). The X-axis and Y-axis of each surface graph represent the concentrations of the two test compounds, and the Z-axis represents the difference between measured inhibition and a theoretically determined additive inhibition. For an additive relationship, the surface graph resembles a horizontal plane at Z=0, whereas positive surface peaks indicate greater inhibition than expected and therefore synergy, and negative surface peaks indicate less inhibition than expected and therefore antagonism.
Synergy and antagonism volumes were calculated separately as the summed volumes of peaks respectively above and below the Z=0 plane. Volumes were determined using 95% confidence limits to assure significance.
Inhibition was analyzed by the method of Chou and Talalay (Chou, T.-C. and P. Talalay. Analysis of Combined Drug Effects: A New Look at a Very Old Problem. Trends Pharmacol. Sci. 1983, 4:450-454; Chou, T. C. Theoretical basis, experimental design, and computerized simulation of synergism and antagonism in drug combination studies. Pharmacological Reviews 2006, 58:621-681). Analysis using the median-effect equation of Chou and Talalay was performed with CompuSyn software (ComboSyn, Inc, Paramus, NJ). […] Combination index (CI) values were determined at inhibition values of 50%, 75%, and 90%.

[2] = Homo sapiens, Erythrocyte, Experiment 2, Eculizumab 0-400 μg/mL
[3] = Homo sapiens, Erythrocyte, Experiment 2, Compstatin 0-300 μM
[4] = Homo sapiens, Erythrocyte, Experiment #1, Compstatin 0-300 μM
[5] = Homo sapiens, Erythrocyte, Experiment #1, Eculizumab 0-400 μg/mL

Molecule `CC(=O)c1nn(CC(=O)N2C[C@H](F)C[C@H]2C(=O)Nc2cccc(Br)n2)c2ccc(-c3cnc(C)nc3)cc12` [Compound 1, (2S,4R)-1-(2-(3-acetyl-5-(2-methylpyrimidin-5-yl)-1H-indazol-1-yl)acetyl)-N-(6-bromopyridin-2-yl)-4-fluoropyrrolidine-2-carboxamide] has an IC50 [1] of 0.027 µM, an inhibition at 0.0234 µM (PNH erythrocytes; [2]) of 0% and an inhibition at 0.0469 µM (PNH erythrocytes; [2]) of 0%. It also gave an inhibition at 0.0938 µM (PNH erythrocytes; [3]) of 0%, an inhibition at 0.0938 µM (PNH erythrocytes; [2]) of 0% and an inhibition at 0.1875 µM (PNH erythrocytes; [3]) of 6%. The inhibition at 0.188 µM (PNH erythrocytes; [2]) was 7%, the inhibition at 0.375 µM (PNH erythrocytes; [3]) was 27% and the inhibition at 0.375 µM (PNH erythrocytes; [2]) was 27%. For the same molecule, the inhibition at 0.75 µM (PNH erythrocytes; [3]) was 65%, the inhibition at 0.75 µM (PNH erythrocytes; [2]) was 42% and the inhibition at 1.5 µM (PNH erythrocytes; [3]) was 90%. It also gave an inhibition at 1.5 µM (PNH erythrocytes; [2]) of 77%, an inhibition at 3 µM (PNH erythrocytes; Homo sapiens, Erythrocyte, Experiment 2, Compound 1 3 μM, Compstatin 0-300 μM) of 97% and an inhibition at 6 µM (PNH erythrocytes; Homo sapiens, Erythrocyte, Experiment 2, Compound 1 6 μM, Compstatin 0-300 μM) of 97%. The inhibition at 0.0234 µM (PNH erythrocytes; [4]) was 0%, the inhibition at 0.0234 µM (PNH erythrocytes; [5]) was 4% and the inhibition at 0.0469 µM (PNH erythrocytes; [4]) was 0%. The inhibition at 0.0469 µM (PNH erythrocytes; [5]) was 2%, the inhibition at 0.0938 µM (PNH erythrocytes; [4]) was 0% and the inhibition at 0.0938 µM (PNH erythrocytes; [5]) was 6%. It also gave an inhibition at 0.1875 µM (PNH erythrocytes; [4]) of 11%, an inhibition at 0.188 µM (PNH erythrocytes; [5]) of 14% and an inhibition at 0.375 µM (PNH erythrocytes; [4]) of 19%. The inhibition at 0.375 µM (PNH erythrocytes; [5]) was 24%, the inhibition at 0.75 µM (PNH erythrocytes; [4]) was 51% and the inhibition at 0.75 µM (PNH erythrocytes; [5]) was 55%. The inhibition at 1.5 µM (PNH erythrocytes; [4]) was 80%, the inhibition at 1.5 µM (PNH erythrocytes; [5]) was 86% and the IC50 (PNH erythrocytes; Homo sapiens, Erythrocyte, AP activity in vitro) was 0.014 µM. The “inhibition at the high end of the test concentration ranges” value (PNH erythrocytes; single agent, PNH erythrocytes) was “complete inhibition”.
